According to PubChem BioAssay AID2060893 (Molecular Pharmacology Branch, DTP, NCI, 2025):

Tested on: K86415-001-R-J1-PDC complex spheroids, viability
Experiment: Anticancer human tumor K86415-001-R-J1-PDC patient-derived lung adenocarcinoma cell line growth inhibition [RAS]
Settings: for IC50: curve of first compound; for viability, T/C: stronger effect = lower value
Summary of the method: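 Multi-cell-type spheroids: tumor cells plus HUVEC endothelial cells and mesenchymal stem cells. RAS-pathway inhibitors were combined with targeted agents, each dosed in half-log steps down from clinical Cmax, or from 10 microM when Cmax was unknown.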

[1] = second compound 0.00316 µM, first compound 0.0316 µM
[2] = second compound 0.00316 µM, first compound 0.1 µM
[3] = second compound 0.01 µM, first compound 0.0316 µM
[4] = second compound 0.01 µM, first compound 0.1 µM
[5] = second compound 0.0316 µM, first compound 0.0316 µM
[6] = second compound 0.0316 µM, first compound 0.1 µM
[7] = second compound 0.1 µM, first compound 0.0316 µM
[8] = second compound 0.1 µM, first compound 0.1 µM
[9] = second compound 0.316 µM, first compound 0.0316 µM
[10] = second compound 0.316 µM, first compound 0.1 µM
[11] = second compound 1 µM, first compound 0.0316 µM
[12] = second compound 1 µM, first compound 0.1 µM
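Also: spheroids exposed to agents for seven days before readout.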

CC(C)NCC(C(=O)N1CCN(c2ncnc3c2C(C)CC3O)CC1)c1ccc(Cl)cc1 (centres undefined) + C=CC(=O)N1CCN(c2nc(OCC3CCCN3C)nc3c(F)c(-c4nc(N)cc(C)c4C(F)(F)F)c(Cl)cc23)C(C)C1
IC50 (second compound 0.00316 µM): < 31.6 nM
IC50 (second compound 0.01 µM): < 31.6 nM
IC50 (second compound 0.0316 µM): < 31.6 nM
IC50 (second compound 0.1 µM): < 31.6 nM
IC50 (second compound 0.316 µM): < 31.6 nM
IC50 (second compound 1 µM): < 31.6 nM
viability, T/C [1]: 15.9%
viability, T/C [2]: 17.9%
viability, T/C (second compound 0.00316 µM, first compound 0.316 µM): 13.7%
viability, T/C (second compound 0.00316 µM, first compound 1 µM): 11.4%
viability, T/C (second compound 0.00316 µM, first compound 3.16 µM): 22.4%
viability, T/C (second compound 0.00316 µM, first compound 10 µM): 18.6%
viability, T/C [3]: 13.2%
viability, T/C [4]: 14.1%
viability, T/C (second compound 0.01 µM, first compound 0.316 µM): 8.15%
viability, T/C (second compound 0.01 µM, first compound 1 µM): 7.26%
viability, T/C (second compound 0.01 µM, first compound 3.16 µM): 9.79%
viability, T/C (second compound 0.01 µM, first compound 10 µM): 5.61%
viability, T/C [5]: 11.2%
viability, T/C [6]: 12.1%
viability, T/C (second compound 0.0316 µM, first compound 0.316 µM): 6.32%
viability, T/C (second compound 0.0316 µM, first compound 1 µM): 6.17%
viability, T/C (second compound 0.0316 µM, first compound 3.16 µM): 6.03%
viability, T/C (second compound 0.0316 µM, first compound 10 µM): 3.62%
viability, T/C [7]: 17.1%
viability, T/C [8]: 9.65%
viability, T/C (second compound 0.1 µM, first compound 0.316 µM): 7.67%
viability, T/C (second compound 0.1 µM, first compound 1 µM): 4.58%
viability, T/C (second compound 0.1 µM, first compound 3.16 µM): 6.35%
viability, T/C (second compound 0.1 µM, first compound 10 µM): 2.96%
viability, T/C [9]: 12.1%
viability, T/C [10]: 8.49%
viability, T/C (second compound 0.316 µM, first compound 0.316 µM): 6.58%
viability, T/C (second compound 0.316 µM, first compound 1 µM): 5.42%
viability, T/C (second compound 0.316 µM, first compound 3.16 µM): 7.11%
viability, T/C (second compound 0.316 µM, first compound 10 µM): 4.04%
viability, T/C [11]: 9.4%
viability, T/C [12]: 10.8%
viability, T/C (second compound 1 µM, first compound 0.316 µM): 7.39%
viability, T/C (second compound 1 µM, first compound 1 µM): 6.41%
viability, T/C (second compound 1 µM, first compound 3.16 µM): 5.23%
viability, T/C (second compound 1 µM, first compound 10 µM): 3.49%

CC(C)n1nc(-c2ccc3oc(N)nc3c2)c2c(N)ncnc21 + C=CC(=O)N1CCN(c2nc(OCC3CCCN3C)nc3c(F)c(-c4nc(N)cc(C)c4C(F)(F)F)c(Cl)cc23)C(C)C1
IC50 (second compound 0.00316 µM): < 0.316 nM
IC50 (second compound 0.01 µM): < 0.316 nM
IC50 (second compound 0.0316 µM): < 0.316 nM
IC50 (second compound 0.1 µM): < 0.316 nM
IC50 (second compound 0.316 µM): < 0.316 nM
IC50 (second compound 1 µM): < 0.316 nM
viability, T/C (second compound 0.00316 µM, first compound 0.000316 µM): 18.4%
viability, T/C (second compound 0.00316 µM, first compound 0.001 µM): 17.5%
viability, T/C (second compound 0.00316 µM, first compound 0.00316 µM): 16.8%
viability, T/C (second compound 0.00316 µM, first compound 0.01 µM): 19.4%
viability, T/C [1]: 31.8%
viability, T/C [2]: 12.5%
viability, T/C (second compound 0.01 µM, first compound 0.000316 µM): 11.8%
viability, T/C (second compound 0.01 µM, first compound 0.001 µM): 11.1%
viability, T/C (second compound 0.01 µM, first compound 0.00316 µM): 11.4%
viability, T/C (second compound 0.01 µM, first compound 0.01 µM): 9%
viability, T/C [3]: 18.9%
viability, T/C [4]: 6%
viability, T/C (second compound 0.0316 µM, first compound 0.000316 µM): 10.9%
viability, T/C (second compound 0.0316 µM, first compound 0.001 µM): 9.65%
viability, T/C (second compound 0.0316 µM, first compound 0.00316 µM): 8.36%
viability, T/C (second compound 0.0316 µM, first compound 0.01 µM): 8%
viability, T/C [5]: 8.61%
viability, T/C [6]: 4.33%
viability, T/C (second compound 0.1 µM, first compound 0.000316 µM): 10.5%
viability, T/C (second compound 0.1 µM, first compound 0.001 µM): 7.96%
viability, T/C (second compound 0.1 µM, first compound 0.00316 µM): 7.44%
viability, T/C (second compound 0.1 µM, first compound 0.01 µM): 7.78%
viability, T/C [7]: 5.11%
viability, T/C [8]: 3.67%
viability, T/C (second compound 0.316 µM, first compound 0.000316 µM): 10.1%
viability, T/C (second compound 0.316 µM, first compound 0.001 µM): 8.76%
viability, T/C (second compound 0.316 µM, first compound 0.00316 µM): 9.08%
viability, T/C (second compound 0.316 µM, first compound 0.01 µM): 8.68%
viability, T/C [9]: 6.52%
viability, T/C [10]: 3.86%
viability, T/C (second compound 1 µM, first compound 0.000316 µM): 8.74%
viability, T/C (second compound 1 µM, first compound 0.001 µM): 8.53%
viability, T/C (second compound 1 µM, first compound 0.00316 µM): 8.04%
viability, T/C (second compound 1 µM, first compound 0.01 µM): 8.63%
viability, T/C [11]: 6.85%
viability, T/C [12]: 2.72%
